Measured values taken from patent US10227336B2, “Pyrazole orexin receptor antagonists” (MERCK SHARP & DOHME CORP., priority 2014, dated 2019).

How the values were obtained:
human orexin-2 receptor = human orexin-2 receptor (Homo sapiens (Human), UniProt O43614); test: FLIPR Ca2+ Flux Assay, hOX2R; format: cell-based; conditions: CHO cells expressing the human orexin-2 receptor; agonist 70 pM Ala-6,12 orexin-A
Description: The utility of the compounds in accordance with the present invention as orexin receptor OX1R and/or OX2R antagonists may be readily determined without undue experimentation by methodology well known in the art, including the “FLIPR Ca^2+ Flux Assay” (Okumura et al., Biochem. Biophys. Res. Comm. 280:976-981, 2001). In a typical experiment the OX1 and OX2 receptor antagonistic activity of the compounds of the present invention was determined in accordance with the following experimental method. For intracellular calcium measurements, Chinese hamster ovary (CHO) cells expressing the rat orexin-1 receptor or the human orexin-2 receptor, are grown in Iscove's modified DMEM containing 2 mM L-glutamine, […], 1% hypoxanthine-thymidine supplement, 100 U/ml penicillin, 100 μg/ml streptomycin and 10% heat-inactivated fetal calf serum (FCS). The cells are seeded at 20,000 cells/well into Becton-Dickinson black 384-well clear bottom sterile plates coated with poly-D-lysine. All reagents were from GIBCO-Invitrogen Corp. The seeded plates are incubated overnight at 37° C. and 5% CO2. Ala-6,12 human orexin-A as the agonist is prepared as a 1 mM stock solution in 1% bovine serum albumin (BSA) and diluted in assay buffer (HBSS containing 20 mM HEPES, 0.1% BSA and 2.5 mM probenecid, pH7.4) for use in the assay at a final concentration of 70 pM. Test compounds are prepared as 10 mM stock solution in DMSO, then diluted in 384-well plates, first in DMSO, then assay buffer. On the day of the assay, cells are washed 3 times with 100 μl assay buffer and then incubated for 60 min (37° C., 5% CO2) in 60 μl assay buffer containing 1 μM Fluo-4AM ester, 0.02% pluronic acid, and 1% BSA. The dye loading solution is then aspirated and cells are washed 3 times with 100 μl assay buffer. 30 μl of that same buffer is left in each well. Within the Fluorescent Imaging Plate Reader (FLIPR, Molecular Devices), test compounds are added to the plate in a volume of 25 μl, incubated for 5 min and finally 25 μl of agonist is added. Fluorescence is measured for each well at 1 second intervals for 5 minutes and the height of each fluorescence peak is compared to the height of the fluorescence peak induced by 70 pM Ala-6,12 orexin-A with buffer in place of antagonist. For each antagonist, IC50 value (the concentration of compound needed to inhibit 50% of the agonist response) is determined. Alternatively, compound potency can be assessed by a radioligand binding assay (described in Bergman et. al. Bioorg. Med. Chem. Lett. 2008, 18, 1425-1430) in which the inhibition constant (Ki) is determined in membranes prepared from CHO cells expressing either the OX1 or OX2 receptor. The intrinsic orexin receptor antagonist activity of a compound which may be used in the present invention may be determined by these assays.

hOX1R = hOX1R (Homo sapiens, UniProt O43613); test: FLIPR Ca2+ Flux Assay, hOX1R; format: cell-based; conditions: CHO cells expressing orexin-1 receptor (head: hOX1R; method: rat); agonist 70 pM Ala-6,12 orexin-A
Description: The utility of the compounds in accordance with the present invention as orexin receptor OX1R and/or OX2R antagonists may be readily determined without undue experimentation by methodology well known in the art, including the “FLIPR Ca^2+ Flux Assay” (Okumura et al., Biochem. Biophys. Res. Comm. 280:976-981, 2001). In a typical experiment the OX1 and OX2 receptor antagonistic activity of the compounds of the present invention was determined in accordance with the following experimental method. […] The cells are seeded at 20,000 cells/well into Becton-Dickinson black 384-well clear bottom sterile plates coated with poly-D-lysine. All reagents were from GIBCO-Invitrogen Corp. The seeded plates are incubated overnight at 37° C. and 5% CO2. Ala-6,12 human orexin-A as the agonist is prepared as a 1 mM stock solution in 1% bovine serum albumin (BSA) and diluted in assay buffer (HBSS containing 20 mM HEPES, 0.1% BSA and 2.5 mM probenecid, pH7.4) for use in the assay at a final concentration of 70 pM. Test compounds are prepared as 10 mM stock solution in DMSO, then diluted in 384-well plates, first in DMSO, then assay buffer. On the day of the assay, cells are washed 3 times with 100 μl assay buffer and then incubated for 60 min (37° C., 5% CO2) in 60 μl assay buffer containing 1 μM Fluo-4AM ester, 0.02% pluronic acid, and 1% BSA. The dye loading solution is then aspirated and cells are washed 3 times with 100 μl assay buffer. 30 μl of that same buffer is left in each well. Within the Fluorescent Imaging Plate Reader (FLIPR, Molecular Devices), test compounds are added to the plate in a volume of 25 μl, incubated for 5 min and finally 25 μl of agonist is added. Fluorescence is measured for each well at 1 second intervals for 5 minutes and the height of each fluorescence peak is compared to the height of the fluorescence peak induced by 70 pM Ala-6,12 orexin-A with buffer in place of antagonist. For each antagonist, IC50 value (the concentration of compound needed to inhibit 50% of the agonist response) is determined. Alternatively, compound potency can be assessed by a radioligand binding assay (described in Bergman et. al. Bioorg. Med. Chem. Lett. 2008, 18, 1425-1430) in which the inhibition constant (Ki) is determined in membranes prepared from CHO cells expressing either the OX1 or OX2 receptor. The intrinsic orexin receptor antagonist activity of a compound which may be used in the present invention may be determined by these assays.

Sequence of human orexin-2 receptor (O43614 whole entry): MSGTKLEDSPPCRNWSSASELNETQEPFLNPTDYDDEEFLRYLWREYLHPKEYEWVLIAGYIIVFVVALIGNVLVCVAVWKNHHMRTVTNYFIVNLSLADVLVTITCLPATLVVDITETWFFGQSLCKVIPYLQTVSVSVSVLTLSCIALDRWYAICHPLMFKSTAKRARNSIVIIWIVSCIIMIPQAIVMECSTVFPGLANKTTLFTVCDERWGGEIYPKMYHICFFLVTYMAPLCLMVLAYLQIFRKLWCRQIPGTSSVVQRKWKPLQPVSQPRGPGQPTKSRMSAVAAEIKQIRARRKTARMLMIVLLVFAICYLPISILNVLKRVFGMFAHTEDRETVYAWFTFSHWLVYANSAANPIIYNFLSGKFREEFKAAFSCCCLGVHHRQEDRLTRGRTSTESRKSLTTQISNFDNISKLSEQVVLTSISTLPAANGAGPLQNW

| Structure (SMILES) | IC50 (human orexin-2 receptor) [nM] | IC50 (hOX1R) [nM] |
| --- | --- | --- |
| CC(C)n1cc([C@@H]2CC[C@@H](C)N(C(=O)c3ccccc3-n3nccn3)C2)cn1 [Example 2, (2R,5S)-2-methyl-5-[1-(1-methylethyl)-1H-pyrazol-4-yl]-1-1{[2-(2H-1,2,3-triazol-2-yl)phenyl]carbonyl}piperidine] | 34 | 3410 |
| CC(C)n1cc([C@@H]2CC[C@@H](C)N(C(=O)c3cscc3-n3nccn3)C2)cn1 [Example 14, (2R,5S)-2-methyl-5-[1-(1-methylethyl)-1H-pyrazol-4-yl]-1-{[4-(2H-1,2,3-triazol-2-yl)thiophen-3-yl]carbonyl}piperidine] | 430 | > 10000 |
| COC(=O)C(C)(C)n1cc([C@@H]2CC[C@@H](C)N(C(=O)c3ccccc3-n3nccn3)C2)cn1 [Example 7, methyl 2-methyl-2-{4-[(3S,6R)-6-methyl-1-{[2-(2H-1,2,3-triazol-2-yl)phenyl]carbonyl}piperidin-3-yl]-1H-pyrazol-1-yl}propanoate] | 46 | 3050 |
| CCn1cc([C@@H]2CC[C@@H](C)N(C(=O)c3ccccc3-n3nccn3)C2)cn1 [Example 1, (2R,5S)-5-(1-Ethyl-1H-pyrazol-4-yl)-2-methyl-1-{[2-(2H-1,2,3-triazol-2-yl)phenyl]carbonyl}piperidine] | 139 | > 10000 |
| C[C@@H]1CC[C@@H](c2cnn(C3CCCC3)c2)CN1C(=O)c1ccccc1-n1nccn1 [Example 4, (2R,5S)-5-(1-cyclopentyl-1H-pyrazol-4-yl)-2-methyl-1-{[2-(2H-1,2,3-triazol-2-yl)phenyl]carbonyl}piperidine] | 39 | 1430 |
| C[C@@H]1CC[C@@H](c2cnn(C3CCOC3)c2)CN1C(=O)c1ccccc1-n1nccn1 (stereo partly drawn) [Example 9, (2R,5S)-2-methyl-5-[1-(tetrahydrofuran-3-yl)-1H-pyrazol-4-yl]-1-{[2-(2H-1,2,3-triazol-2-yl)phenyl]carbonyl}piperidine] | 600 | > 10000 |
| C[C@@H]1CC[C@@H](c2cnn(CC(F)F)c2)CN1C(=O)c1ccccc1-n1nccn1 [Example 6, (2R,5S)-5-[1-(2,2-difluoroethyl)-1H-pyrazol-4-yl]-2-methyl-1-{[2-(2H-1,2,3-triazol-2-yl)phenyl]carbonyl}piperidine] | 183 | > 10000 |
| CC(C)n1cc([C@@H]2CC[C@@H](C)N(C(=O)c3ccsc3-c3ncccn3)C2)cn1 [Example 13, 2[3-({(2R,5S)-2-methy1-5-[1-(1-methylethyl)-1H-pyrazol-4-yl]piperidin-1-yl}carbonyl)thiophen-2-yl]pyrimidine] | 155 | > 10000 |
| C[C@@H]1CC[C@@H](c2cnn(C3CC3)c2)CN1C(=O)c1ccccc1-n1nccn1 [Example 11, (2R,5S)-5-(1-Cyclopropyl-1H-pyrazol-4-yl)-2-methyl-1-{[2-(2H-1,2,3-triazol-2-yl)phenyl]carbonyl}piperidine] | 56 | > 10000 |
| CC(C)n1cc([C@@H]2CC[C@@H](C)N(C(=O)c3ccsc3-n3nccn3)C2)cn1 [Example 12, (2R,5S)-2-Methyl-5-[1-(1-methylethyl)-1H-pyrazol-4-yl]-1-{[2-(2H-1,2,3-triazol-2-yl)thiophen-3-yl]carbonyl}piperidine] | 301 | > 10000 |
| C[C@@H]1CC[C@@H](c2cnn(CC3CC3)c2)CN1C(=O)c1ccccc1-n1nccn1 [Example 3, (2R,5S)-5-[1-(cyclopropylmethyl)-1H-pyrazol-4-yl]-2-methyl-1-{[2-(2H-1,2,3-triazol-2-yl)phenyl]carbonyl}piperidine] | 124 | 7710 |
| C[C@@H]1CC[C@@H](c2cnn(CC(F)(F)F)c2)CN1C(=O)c1ccccc1-n1nccn1 [Example 5, (2R,5S)-2-methyl-1-{[2-(2H-1,2,3-triazol-2-yl)phenyl]carbonyl}-5-[1-(2,2,2-trifluoroethyl)-1H-pyrazol-4-yl]piperidine] | 75 | > 10000 |
| C[C@@H]1CC[C@@H](c2cnn(C3CCC3)c2)CN1C(=O)c1ccccc1-n1nccn1 [Example 8, (2R,5S)-5-(1-cyclobutyl-1H-pyrazol-4-yl)-2-methyl-1-{[2-(2H-1,2,3-triazol-2-yl)phenyl]carbonyl}piperidine] | 49 | 3440 |
| C[C@@H]1CC[C@@H](c2cnn(CC(C)(C)O)c2)CN1C(=O)c1ccccc1-n1nccn1 [Example 10, 2-Methyl-1-{4-[(3S,6R)-6-methyl-1-{[2-(2H-1,2,3-triazol-2-yl)phenyl]carbonyl}piperidin-3-yl]-1H-pyrazol-1-yl}propan-2-ol] | 197 | > 10000 |
| CC(C)n1cc([C@@H]2CC[C@@H](C)N(C(=O)c3ccccc3-n3ncnn3)C2)cn1 [Example 16, (2R,5S)-2-methyl-5-[1-(1-methylethyl)-1H-pyrazol-4-yl]-1-{[2-(2H-tetrazol-2-yl)phenyl]carbonyl}piperidine] | 259 | > 10000 |
| CC(C)n1cc([C@@H]2CC[C@@H](C)N(C(=O)c3ccc(F)cc3-n3nccn3)C2)cn1 [Example 15, (2R,5S)-1-{[4-fluoro-2-(2H-1,2,3-triazol-2-yl)phenyl]carbonyl}-2-methyl-5-[1-(1-methylethyl)-1H-pyrazol-4-yl]piperidine] | 113 | > 10000 |
